Test results published in the supplement of paper PMC13380429.

Key:
Settings in all cases: 72 h
U2OS [1] = test: cell viability relative to DMSO; higher = less toxic
Caco-2 [2] = test: as above
Calu-3 [3] = test: as above
Vero E6 [4] = test: as above
HepG2 [5] = test: as above
U2OS [6] = test: drug sensitivity score (DSS) for viability; higher = more toxic; extreme values may be limits of the assay
Caco-2 [7] = test: as above
Calu-3 [8] = test: as above
Vero E6 [9] = test: as above
HepG2 [10] = test: as above
U2OS [11] = test: relative viability EC50 (midpoint between 100% and the lowest measured viability); higher = less toxic
Caco-2 [12] = test: as above
Calu-3 [13] = test: as above
Vero E6 [14] = test: as above
HepG2 [15] = test: as above

Cn1c(=O)c2c(ncn2CC(=O)O)n(C)c1=O [acefylline]
cell viability (U2OS [1]; 1 nM): 98.7% | cell viability (U2OS [1]; 10 nM): 97% | cell viability (U2OS [1]; 100 nM): 96.8% | cell viability (U2OS [1]; 1000 nM): 95.5% | cell viability (U2OS [1]; 10000 nM): 97.8% | cell viability (Caco-2 [2]; 1 nM): 102% | cell viability (Caco-2 [2]; 10 nM): 98% | cell viability (Caco-2 [2]; 100 nM): 114% | cell viability (Caco-2 [2]; 1000 nM): 110% | cell viability (Caco-2 [2]; 10000 nM): 105% | cell viability (Calu-3 [3]; 1 nM): 104% | cell viability (Calu-3 [3]; 10 nM): 101% | cell viability (Calu-3 [3]; 100 nM): 114% | cell viability (Calu-3 [3]; 1000 nM): 93.8% | cell viability (Calu-3 [3]; 10000 nM): 102% | cell viability (Vero E6 [4]; 1 nM): 104% | cell viability (Vero E6 [4]; 10 nM): 105% | cell viability (Vero E6 [4]; 100 nM): 107% | cell viability (Vero E6 [4]; 1000 nM): 105% | cell viability (Vero E6 [4]; 10000 nM): 86.5% | cell viability (HepG2 [5]; 1 nM): 93% | cell viability (HepG2 [5]; 10 nM): 98.8% | cell viability (HepG2 [5]; 100 nM): 102% | cell viability (HepG2 [5]; 1000 nM): 95.1% | cell viability (HepG2 [5]; 10000 nM): 108% | drug sensitivity score (U2OS [6]): 0 | drug sensitivity score (Caco-2 [7]): 0 | drug sensitivity score (Calu-3 [8]): 0 | drug sensitivity score (Vero E6 [9]): 0.1 | drug sensitivity score (HepG2 [10]): 0 | relative viability EC50 (U2OS [11]): > 10 µM | relative viability EC50 (Caco-2 [12]): > 10 µM | relative viability EC50 (Calu-3 [13]): > 10 µM | relative viability EC50 (Vero E6 [14]): > 10 µM | relative viability EC50 (HepG2 [15]): > 10 µM

CC(=O)N[C@@H](CCC(N)=O)C(=O)O [aceglutamide]
cell viability (U2OS [1]; 1 nM): 106% | cell viability (U2OS [1]; 10 nM): 103% | cell viability (U2OS [1]; 100 nM): 99.2% | cell viability (U2OS [1]; 1000 nM): 98.8% | cell viability (U2OS [1]; 10000 nM): 98.5% | cell viability (Caco-2 [2]; 1 nM): 95.5% | cell viability (Caco-2 [2]; 10 nM): 103% | cell viability (Caco-2 [2]; 100 nM): 84.5% | cell viability (Caco-2 [2]; 1000 nM): 82.4% | cell viability (Caco-2 [2]; 10000 nM): 83% | cell viability (Calu-3 [3]; 1 nM): 101% | cell viability (Calu-3 [3]; 10 nM): 89.8% | cell viability (Calu-3 [3]; 100 nM): 101% | cell viability (Calu-3 [3]; 1000 nM): 110% | cell viability (Calu-3 [3]; 10000 nM): 103% | cell viability (Vero E6 [4]; 1 nM): 98.3% | cell viability (Vero E6 [4]; 10 nM): 104% | cell viability (Vero E6 [4]; 100 nM): 99.8% | cell viability (Vero E6 [4]; 1000 nM): 99.9% | cell viability (Vero E6 [4]; 10000 nM): 83.7% | cell viability (HepG2 [5]; 1 nM): 90.7% | cell viability (HepG2 [5]; 10 nM): 89.7% | cell viability (HepG2 [5]; 100 nM): 104% | cell viability (HepG2 [5]; 1000 nM): 92.5% | cell viability (HepG2 [5]; 10000 nM): 86.4% | drug sensitivity score (U2OS [6]): 0 | drug sensitivity score (Caco-2 [7]): 3.5 | drug sensitivity score (Calu-3 [8]): 0 | drug sensitivity score (Vero E6 [9]): 0.3 | drug sensitivity score (HepG2 [10]): 0 | relative viability EC50 (U2OS [11]): > 10 µM | relative viability EC50 (Caco-2 [12]): > 10 µM | relative viability EC50 (Calu-3 [13]): > 10 µM | relative viability EC50 (Vero E6 [14]): > 10 µM | relative viability EC50 (HepG2 [15]): > 10 µM

CC(=O)NO [acetohydroxamic-acid]
cell viability (U2OS [1]; 1 nM): 106% | cell viability (U2OS [1]; 10 nM): 102% | cell viability (U2OS [1]; 100 nM): 97.7% | cell viability (U2OS [1]; 1000 nM): 98.7% | cell viability (U2OS [1]; 10000 nM): 99.8% | cell viability (Caco-2 [2]; 1 nM): 96.3% | cell viability (Caco-2 [2]; 10 nM): 97.6% | cell viability (Caco-2 [2]; 100 nM): 94.9% | cell viability (Caco-2 [2]; 1000 nM): 95.5% | cell viability (Caco-2 [2]; 10000 nM): 112% | cell viability (Calu-3 [3]; 1 nM): 104% | cell viability (Calu-3 [3]; 10 nM): 98.8% | cell viability (Calu-3 [3]; 100 nM): 112% | cell viability (Calu-3 [3]; 1000 nM): 92.6% | cell viability (Calu-3 [3]; 10000 nM): 96.9% | cell viability (Vero E6 [4]; 1 nM): 97.6% | cell viability (Vero E6 [4]; 10 nM): 97.2% | cell viability (Vero E6 [4]; 100 nM): 102% | cell viability (Vero E6 [4]; 1000 nM): 101% | cell viability (Vero E6 [4]; 10000 nM): 97.6% | cell viability (HepG2 [5]; 1 nM): 99.6% | cell viability (HepG2 [5]; 10 nM): 101% | cell viability (HepG2 [5]; 100 nM): 95.9% | cell viability (HepG2 [5]; 1000 nM): 96.2% | cell viability (HepG2 [5]; 10000 nM): 97.3% | drug sensitivity score (U2OS [6]): 0 | drug sensitivity score (Caco-2 [7]): 0 | drug sensitivity score (Calu-3 [8]): 0 | drug sensitivity score (Vero E6 [9]): 0 | drug sensitivity score (HepG2 [10]): 0 | relative viability EC50 (U2OS [11]): > 10 µM | relative viability EC50 (Caco-2 [12]): > 10 µM | relative viability EC50 (Calu-3 [13]): > 10 µM | relative viability EC50 (Vero E6 [14]): > 10 µM | relative viability EC50 (HepG2 [15]): > 10 µM

Cc1cnc(C(=O)O)c[n+]1[O-] [acipimox]
cell viability (U2OS [1]; 1 nM): 98.6% | cell viability (U2OS [1]; 10 nM): 101% | cell viability (U2OS [1]; 100 nM): 101% | cell viability (U2OS [1]; 1000 nM): 98.5% | cell viability (U2OS [1]; 10000 nM): 97% | cell viability (Caco-2 [2]; 1 nM): 94.3% | cell viability (Caco-2 [2]; 10 nM): 100% | cell viability (Caco-2 [2]; 100 nM): 95.4% | cell viability (Caco-2 [2]; 1000 nM): 93.4% | cell viability (Caco-2 [2]; 10000 nM): 87.2% | cell viability (Calu-3 [3]; 1 nM): 107% | cell viability (Calu-3 [3]; 10 nM): 102% | cell viability (Calu-3 [3]; 100 nM): 108% | cell viability (Calu-3 [3]; 1000 nM): 94.7% | cell viability (Calu-3 [3]; 10000 nM): 97.1% | cell viability (Vero E6 [4]; 1 nM): 98.6% | cell viability (Vero E6 [4]; 10 nM): 103% | cell viability (Vero E6 [4]; 100 nM): 102% | cell viability (Vero E6 [4]; 1000 nM): 95.7% | cell viability (Vero E6 [4]; 10000 nM): 101% | cell viability (HepG2 [5]; 1 nM): 87.2% | cell viability (HepG2 [5]; 10 nM): 101% | cell viability (HepG2 [5]; 100 nM): 96.6% | cell viability (HepG2 [5]; 1000 nM): 89.5% | cell viability (HepG2 [5]; 10000 nM): 92.3% | drug sensitivity score (U2OS [6]): 0 | drug sensitivity score (Caco-2 [7]): 0 | drug sensitivity score (Calu-3 [8]): 0 | drug sensitivity score (Vero E6 [9]): 0 | drug sensitivity score (HepG2 [10]): 0 | relative viability EC50 (U2OS [11]): > 10 µM | relative viability EC50 (Caco-2 [12]): > 10 µM | relative viability EC50 (Calu-3 [13]): > 10 µM | relative viability EC50 (Vero E6 [14]): > 10 µM | relative viability EC50 (HepG2 [15]): > 10 µM

CN(C)C/C=C/C(=O)Nc1cc2c(Nc3ccc(F)c(Cl)c3)ncnc2cc1O[C@H]1CCOC1 [afatinib]
cell viability (U2OS [1]; 1 nM): 95.8% | cell viability (U2OS [1]; 10 nM): 100% | cell viability (U2OS [1]; 100 nM): 93.2% | cell viability (U2OS [1]; 1000 nM): 91.1% | cell viability (U2OS [1]; 10000 nM): 13.6% | cell viability (Caco-2 [2]; 1 nM): 109% | cell viability (Caco-2 [2]; 10 nM): 90.4% | cell viability (Caco-2 [2]; 100 nM): 83% | cell viability (Caco-2 [2]; 1000 nM): 73.4% | cell viability (Caco-2 [2]; 10000 nM): 46.1% | cell viability (Calu-3 [3]; 1 nM): 88.7% | cell viability (Calu-3 [3]; 10 nM): 57.8% | cell viability (Calu-3 [3]; 100 nM): 32.1% | cell viability (Calu-3 [3]; 1000 nM): 28.8% | cell viability (Calu-3 [3]; 10000 nM): 9.1% | cell viability (Vero E6 [4]; 1 nM): 101% | cell viability (Vero E6 [4]; 10 nM): 93.7% | cell viability (Vero E6 [4]; 100 nM): 66% | cell viability (Vero E6 [4]; 1000 nM): 51.7% | cell viability (Vero E6 [4]; 10000 nM): 3.8% | cell viability (HepG2 [5]; 1 nM): 117% | cell viability (HepG2 [5]; 10 nM): 96.1% | cell viability (HepG2 [5]; 100 nM): 104% | cell viability (HepG2 [5]; 1000 nM): 93.7% | cell viability (HepG2 [5]; 10000 nM): 27.6% | drug sensitivity score (U2OS [6]): 6.2 | drug sensitivity score (Caco-2 [7]): 7.2 | drug sensitivity score (Calu-3 [8]): 27.9 | drug sensitivity score (Vero E6 [9]): 14.2 | drug sensitivity score (HepG2 [10]): 5 | relative viability EC50 (U2OS [11]): 2.32 µM | relative viability EC50 (Caco-2 [12]): 0.496 µM | relative viability EC50 (Calu-3 [13]): 0.0181 µM | relative viability EC50 (Vero E6 [14]): 0.465 µM | relative viability EC50 (HepG2 [15]): 2.45 µM

Cc1ccccc1-n1c(CF)nc2ccc(N)cc2c1=O [afloqualone]
cell viability (U2OS [1]; 1 nM): 98.3% | cell viability (U2OS [1]; 10 nM): 97.9% | cell viability (U2OS [1]; 100 nM): 102% | cell viability (U2OS [1]; 1000 nM): 98.6% | cell viability (U2OS [1]; 10000 nM): 102% | cell viability (Caco-2 [2]; 1 nM): 98% | cell viability (Caco-2 [2]; 10 nM): 102% | cell viability (Caco-2 [2]; 100 nM): 104% | cell viability (Caco-2 [2]; 1000 nM): 101% | cell viability (Caco-2 [2]; 10000 nM): 110% | cell viability (Calu-3 [3]; 1 nM): 98.1% | cell viability (Calu-3 [3]; 10 nM): 96.8% | cell viability (Calu-3 [3]; 100 nM): 101% | cell viability (Calu-3 [3]; 1000 nM): 108% | cell viability (Calu-3 [3]; 10000 nM): 109% | cell viability (Vero E6 [4]; 1 nM): 105% | cell viability (Vero E6 [4]; 10 nM): 98.2% | cell viability (Vero E6 [4]; 100 nM): 100% | cell viability (Vero E6 [4]; 1000 nM): 102% | cell viability (Vero E6 [4]; 10000 nM): 92.4% | cell viability (HepG2 [5]; 1 nM): 100% | cell viability (HepG2 [5]; 10 nM): 94% | cell viability (HepG2 [5]; 100 nM): 100% | cell viability (HepG2 [5]; 1000 nM): 83.3% | cell viability (HepG2 [5]; 10000 nM): 93.7% | drug sensitivity score (U2OS [6]): 0 | drug sensitivity score (Caco-2 [7]): 0 | drug sensitivity score (Calu-3 [8]): 0 | drug sensitivity score (Vero E6 [9]): 0 | drug sensitivity score (HepG2 [10]): 0 | relative viability EC50 (U2OS [11]): > 10 µM | relative viability EC50 (Caco-2 [12]): > 10 µM | relative viability EC50 (Calu-3 [13]): > 10 µM | relative viability EC50 (Vero E6 [14]): > 10 µM | relative viability EC50 (HepG2 [15]): > 10 µM
